According to patent US20250282820A1, “PEPTIDE COMPLEX HAVING TRKB BINDING ACTIVITY” (PEPTIDREAM INC, priority 2022, published 2025):
*1 amine or outer side, *2 acyl side, *3 side chain or, on linkers, in order; H or OH if unused. Where a SMILES comes first, the peptide text is derived from it. Bridges are numbered along the chain shown (N, C = ends). Roman numbers before positions name the chains, in order. [ ]: non-standard residue; d: D form. CO(CH2CH2O)13CH2CH2CO = O=C(CCOCCOCCOCCOCCOCCOCCOCCOCCOCCOCCOCCOCCOCCC(=O)[*:2])[*:1]; 3Pal = N[C@@H](Cc1cccnc1)C(=O)O

Molecular target: T1, TrkB (CellSensor TrkB-NFAT-bla CHO-K1 Cell) (Homo sapiens, UniProt Q16620)
T1 construct: host or cells: CHO-K1 (CellSensor TrkB-NFAT-bla CHO-K1)
Assay: NFAT transcriptional reporter assay for TrkB agonist activity
Assay type: cell-based
Conditions: class = peptide concentration giving 50% or more activity; BDNF maximum signal = 100%, no stimulation = 0%; 5 hours culture
In short: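 CHO-K1 TrkB-NFAT-bla cells, 12,500 per well, treated overnight-seeded with peptide or BDNF for 5 h, then CCF4-AM substrate 2 h in the dark; 460/535 nm emission ratio. Activity scaled to maximal BDNF signal (100%) and unstimulated (0%); grades A/B/C mean ≥50% activity at 1, 10 or 100 nM.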

T1 sequence (Q16620 32-822): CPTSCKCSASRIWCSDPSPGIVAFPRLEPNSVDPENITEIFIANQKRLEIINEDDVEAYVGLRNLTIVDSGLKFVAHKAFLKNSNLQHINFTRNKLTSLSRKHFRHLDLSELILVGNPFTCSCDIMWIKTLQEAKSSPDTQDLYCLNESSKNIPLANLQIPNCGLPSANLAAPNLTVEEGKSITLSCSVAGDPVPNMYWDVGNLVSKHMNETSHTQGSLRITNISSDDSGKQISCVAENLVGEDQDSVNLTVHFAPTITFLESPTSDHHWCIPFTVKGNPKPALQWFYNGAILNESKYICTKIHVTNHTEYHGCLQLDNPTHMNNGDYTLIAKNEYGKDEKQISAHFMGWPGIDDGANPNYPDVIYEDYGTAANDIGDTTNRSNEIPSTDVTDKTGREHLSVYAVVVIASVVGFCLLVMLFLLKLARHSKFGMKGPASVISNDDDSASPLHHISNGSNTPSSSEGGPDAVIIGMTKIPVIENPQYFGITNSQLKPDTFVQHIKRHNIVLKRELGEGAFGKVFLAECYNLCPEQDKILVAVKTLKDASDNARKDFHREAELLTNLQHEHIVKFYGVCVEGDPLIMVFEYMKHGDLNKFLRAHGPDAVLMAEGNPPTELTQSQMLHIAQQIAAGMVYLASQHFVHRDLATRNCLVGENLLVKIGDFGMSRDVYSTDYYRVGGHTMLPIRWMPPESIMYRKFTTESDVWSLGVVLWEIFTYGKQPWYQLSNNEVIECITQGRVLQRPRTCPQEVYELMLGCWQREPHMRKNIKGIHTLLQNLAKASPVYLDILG

Structure (SMILES)	NFAT Assay Results
CC(C)[C@@H]1NC(=O)[C@H](Cc2cccnc2)NC(=O)[C@H](CCC(=O)O)NC(=O)[C@H](CO)NC(=O)[C@H](Cc2ccc(O)cc2)NC(=O)[C@H]([C@@H](C)O)NC(=O)[C@@H]2CCCN2C(=O)[C@H](Cc2c[nH]c3ccccc23)NC(=O)[C@H](Cc2cccnc2)NC(=O)[C@H](Cc2ccc(O)cc2)NC(=O)[C@@H]2CCCN2C(=O)[C@H](CCC(=O)O)NC(=O)[C@H](Cc2ccccc2)NC(=O)CSC[C@@H](C(=O)NCC(=O)N[C@@H](CCCCNC(=O)CCOCCOCCOCCOCCOCCOCCOCCOCCOCCOCCOCCOCCOCCC(=O)NCCCC[C@H](NC(=O)CNC(=O)[C@@H]2CSCC(=O)N[C@@H](Cc3ccccc3)C(=O)N[C@@H](CCC(=O)O)C(=O)N3CCC[C@H]3C(=O)N[C@@H](Cc3ccc(O)cc3)C(=O)N[C@@H](Cc3cccnc3)C(=O)N[C@@H](Cc3c[nH]c4ccccc34)C(=O)N3CCC[C@H]3C(=O)N[C@@H]([C@@H](C)O)C(=O)N[C@@H](Cc3ccc(O)cc3)C(=O)N[C@@H](CO)C(=O)N[C@@H](CCC(=O)O)C(=O)N[C@@H](Cc3cccnc3)C(=O)N[C@@H](C(C)C)C(=O)N[C@@H](CCC(=O)O)C(=O)N2)C(N)=O)C(N)=O)NC(=O)[C@H](CCC(=O)O)NC1=O [compound 56] (I: {CH2CO}-FEPY[3Pal]WPTYSE[3Pal]VECGK-NH2 / II: {CH2CO}-FEPY[3Pal]WPTYSE[3Pal]VECGK-NH2; linker I:17-II:17 via CO(CH2CH2O)13CH2CH2CO; thioether I:N-I:15, II:N-II:15)	A (The peptide with 50% or more activity when 1 nM of the peptide was added was evaluated as A)
CC(C)[C@@H]1NC(=O)[C@H](Cc2cccnc2)NC(=O)[C@H](CCC(=O)O)NC(=O)[C@H](CO)NC(=O)[C@H](Cc2ccc(O)cc2)NC(=O)[C@H]([C@@H](C)O)NC(=O)[C@@H]2CCCN2C(=O)[C@H](Cc2c[nH]c3ccccc23)NC(=O)[C@H](Cc2cccnc2)NC(=O)[C@H](Cc2ccc(O)cc2)NC(=O)[C@@H]2CCCN2C(=O)[C@H](CO)NC(=O)[C@H](Cc2ccccc2)NC(=O)CSC[C@@H](C(=O)NCC(=O)N[C@@H](CCCCNC(=O)CCOCCOCCOCCOCCOCCOCCOCCOCCOCCOCCOCCOCCOCCC(=O)NCCCC[C@H](NC(=O)CNC(=O)[C@@H]2CSCC(=O)N[C@@H](Cc3ccccc3)C(=O)N[C@@H](CO)C(=O)N3CCC[C@H]3C(=O)N[C@@H](Cc3ccc(O)cc3)C(=O)N[C@@H](Cc3cccnc3)C(=O)N[C@@H](Cc3c[nH]c4ccccc34)C(=O)N3CCC[C@H]3C(=O)N[C@@H]([C@@H](C)O)C(=O)N[C@@H](Cc3ccc(O)cc3)C(=O)N[C@@H](CO)C(=O)N[C@@H](CCC(=O)O)C(=O)N[C@@H](Cc3cccnc3)C(=O)N[C@@H](C(C)C)C(=O)N[C@@H](CCC(=O)O)C(=O)N2)C(N)=O)C(N)=O)NC(=O)[C@H](CCC(=O)O)NC1=O [compound 48] (I: {CH2CO}-FSPY[3Pal]WPTYSE[3Pal]VECGK-NH2 / II: {CH2CO}-FSPY[3Pal]WPTYSE[3Pal]VECGK-NH2; linker I:17-II:17 via CO(CH2CH2O)13CH2CH2CO; thioether I:N-I:15, II:N-II:15)	A (The peptide with 50% or more activity when 1 nM of the peptide was added was evaluated as A)
